The MIC90 is an inhibitory concentration at the 90% level, which refers to growth in some studies and to a panel of isolates in others. Low readings indicate higher susceptibility, high ones lower susceptibility.

This is an account of results in patent US8815535B2, “Disk diffusion assay for oritavancin” (The Medicines Company, priority 2011, dated 2014).

Converted amounts (≈) assume the structure as drawn. Some results are limits rather than exact numbers.

For assay [1], the system named is S. aureus isolates. Kind of assay: Broth microdilution (BMD) MIC, panel of isolates. The following applies: Staphylococcus aureus, wild-type susceptibility to oritavancin. Type of assay: cell-based. The source says: To date, only the broth microdilution (BMD) minimal inhibitory concentration (MIC) test is a reference method accepted by the Clinical Laboratory Standards Institute (CLSI) for use in determining the susceptibility of a bacterial isolate to oritavancin (Methods for Dilution Antimicrobial Susceptibility Tests for Bacteria That Grow Aerobically; Approved Standard, CLSI document M7-A8, 8th ed. Clinical and Laboratory Standards Institute, Wayne, Pa. 2009; Performance Standards for Antimicrobial Susceptibility Testing; Eighteenth Informational Supplement, CLSI document M100-S18, 7th ed. Clinical and Laboratory Standards Institute, Wayne, Pa. 2008).
(In general: Dilution methods test growth across graded concentrations, often in twofold steps.)

The test system of assay [2] is S. aureus isolates. In words: Disk diffusion assay, panel of isolates. Type of assay: cell-based, Staphylococcus aureus. The source says:
The study was designed to identify conditions that improve oritavancin diffusion in agar and consequently yield a zone diameter ≧15 mm for the CLSI quality control strain MSSA ATCC 25923. Excipients that increased the disk diffusion of oritavancin in agar relative to disks containing only oritavancin were identified and selected for further study. […] A prediffusion step at room temperature was introduced to maximize oritavancin diffusion prior to initiation of bacterial growth. In this step, the antimicrobial disks were placed on agar plates seeded with a bacterial isolate and incubated at room temperature for 3 hours. Plates were then incubated overnight at 37° C. Zone diameters around the disks in which bacterial growth was inhibited were measured with a ruler and reported in millimeters.
Ethanol-sterilized Whatman paper disks (6 mm diameter) were allowed to dry then impregnated with 20 microliters of oritavancin solution containing total amounts ranging from 90 to 360 micrograms. Disks were allowed to dry at room temperature for various times prior to use.
Bacterial suspensions were prepared and adjusted to an optical density of 0.1 at 600 nm. Standard cation-adjusted Mueller Hinton agar plates (90 mm diameter) were seeded with bacterial suspensions by initially swabbing the center of plate then moving outward towards the edge. The plate was swabbed a second time, perpendicular to the orientation of the first swab. To assess the impact of prediffusion on diameter of inhibition zones, two disks were immediately placed on one half of the plate and the plate was incubated for 3 hours at room temperature. After 3 hours, two additional disks were placed on the other half of the plate then the plate was incubated overnight at 37° C. Zone diameters were measured with a ruler and reported in millimeters.
Oritavancin powder was dissolved in freshly-prepared solutions of the indicated excipients at concentrations of 0.625, 1.25, 2.5, 5, and 10 mg/ml (adjusted for potency based on lot 875561L00 purity of 83.1%) by vortexing for a minimum of 5 minutes. Oritavancin solutions in the various excipients, while not visually clear, were free from any apparent particulates as assessed visually. Sterile Oxoid blank disks were impregnated with 20 μl of these oritavancin solutions, resulting in oritavancin disk loads ranging from 12.5 to 200 μg. Unless indicated otherwise, disks were allowed to dry overnight at room temperature prior to use.
Bacterial suspensions from isolated colonies on overnight cation-adjusted Mueller Hinton agar plates were prepared in sterile saline and adjusted to an optical density of 0.1 at 600 nm Standard cation-adjusted Mueller Hinton agar plates (90 mm diameter) were seeded with bacterial suspensions by initially swabbing the center of plate then moving outward. Swabbing was continued at a right angle and then at an oblique angle to the first and second swabs. Disks were placed upon the seeded plates with sterile forceps. Plates were then incubated overnight at 37° C. and inhibition zone diameters were measured with a ruler and reported in millimeters.
For orientation: In agar diffusion tests the substance spreads into inoculated agar from a disc or well.

On to `CN[C@H](CC(C)C)C(=O)N[C@H]1C(=O)N[C@@H](CC(N)=O)C(=O)N[C@H]2C(=O)N[C@H]3C(=O)N[C@H](C(=O)N[C@H](C(=O)O)c4cc(O)cc(O)c4-c4cc3ccc4O)[C@H](O[C@H]3C[C@](C)(N)[C@@H](O)[C@H](C)O3)c3ccc(c(Cl)c3)Oc3cc2cc(c3O[C@@H]2O[C@H](CO)[C@@H](O)[C@H](O)[C@H]2O[C@H]2C[C@](C)(NCc3ccc(-c4ccc(Cl)cc4)cc3)[C@@H](O)[C@H](C)O2)Oc2ccc(cc2Cl)[C@H]1O` [oritavancin, N-(4-(4-chlorophenyl)benzyl)A82846B], for which the MIC90 with S. aureus isolates [1] stood at 0.12 µg/mL (≈ 0.0669 µM). Also, the “Zone diameter smaller for the two reduced-susceptibility isolates compared to MSSA and MRSA isolates exhibiting the same BMD MICs” value in the assay with S. aureus isolates [2] (360 μg in 5% P80) is “approximately 2 mm”. The “Average increase of zone diameter by prediffusion” value was “approximately 2.5 mm” in the assay on S. aureus isolates [2] (MSSA and MRSA strains, 360 μg in 5% P80); “approximately 1.1 mm” with S. aureus isolates [2] (VISA and oritavancin reduced-susceptibility isolates, 360 μg in 5% P80). In the assay with S. aureus isolates [2] (Staphylococcus aureus, 19 wild-type clinical isolates, 20 μl of 1.25 mg/ml in 4% P80/Span 80 (1:1), calcium alginate swabs, read-out: Inhibition zone diameters), the zone of inhibition at 1250 µg/mL was 20 to 24 mm. For the same compound, the Zone diameters in the assay on S. aureus isolates [2] (many S. aureus strains, different combinations of the alterations to the traditional assay) is listed as greater than 15 mm.
